According to patent US12617818B2, “Compositions and methods for modulating myosin subfragment-2 coiled coil stability and methods for using them” (UNIVERSITY OF NORTH TEXAS, priority 2020, dated 2026):

Assays:
[1] = test system: rabbit skeletal myosin (myosin S2 coiled coil); assay: GFS with rabbit skeletal myosin tethered by S1 heads to G-actin; type: biochemical
Procedure: To test stability and flexibility of myosin S2 peptide two different types of conjugation was performed to tether the molecule between the immobile edge and mobile edge. First conjugation was crosslinking the muscle myosin S2 peptides to immobile edge and mobile bead. A different conjugation was benefiting from the binding property of actin to myosin S1. Rabbit skeletal myosin molecule at myosin S1 position was bound with G-actin treated immobile edge and mobile bead.
This conjugation was done by first, treating glass coverslips and silica beads with 0.04% 3-aminopropyltriethoxylsilane in acetone to add the aminosilane groups to both glass coverslips and silica beads. To cross link G-actin to the aminosilanated glass coverslips and silica beads 740 mM 1-ethyl-3-(3 dimethyaminopropyl) carbodiimide was used with help of 60 μM N-hydroxysuccinamide. To block any unreacted group, glycine quenching solution was added. Lastly, both glass coverslips and silica beads went over several washes with low salt buffer and were stored in the same low salt buffer for GFS experiments.
The point of attachment to tether myosin molecule between immobile edge of the coverslip and mobile beads, was at the acto-myosin S1 binding region. The edge of the coverslips and silica beads are coated with G-actin molecules. […]

[2] = biological target: T1, cardiac muscle myosin S2 peptide wild-type (MYH7) (Homo sapiens, UniProt P12883); assay: FRET of cardiac muscle myosin S2 peptide dimer with anti-S2 peptides; type: binding; conditions: Cardiac peptide with Stabilizer
T1 construct: The 19 residue peptide was chemically synthesized; purchased BioSynthesis; Inc; host or cells: chemical synthesis
Source text: A small region of myosin subfragment 2 (S2) region of human β-cardiac myosin (MYH7) was selected to be synthesized by BioSynthesis; Inc. The region was selected based on mutations found within this region causing Familial hypertrophic cardiomyopathy (FHC) (Richard et al., 2003). The mutations are located within proximal region of myosin S2 specifically region of 921-939 (FIG. 7). Myosin S2 is an intrinsically unstable coiled coil and the sequence of this region was acquired from Protein Data Bank (PDB). The 19 residue peptide was chemically synthesized. Generated amino acid sequence used is as follow:
Chelate-lanthanide complex was utilized as the donor probe, which is composed of a lanthanide, an antenna, and a chelate. Organic chromophore antenna ([…]) will absorb a photon of light, and it will transfer energy to lanthanide ion (terbium III). This probe excites at 248 nm and emits at 547 nm.
Fluorescein was used as the acceptor probe. […]
In this experiment, luminescence spectrometer, AMNICO-BOWMAN SERIES 2 SPECTROMETER™, was used to detect resonance energy transfer. […] Emission signal generated from decay of molecules was detected by a photomultiplier tube, which contains proper color filters to detect the emitted photons.
FRET measured the dissociation constant (binding affinity) between the myosin S2 dimers and the anti-S2 peptides. […]

Row | TD (donor lifetime without acceptor) [2] | SMILES | force required to uncoil myosin relative to absence of peptide (less) ([1]; destabilizer peptide vs control) [times] | Force required to uncoil the myosin molecule ([1]; length 100 nm, in presence of destabilizer peptide) [pN]
1 |  | CSCC[C@H](NC(=O)[C@H](CCC(=O)O)NC(=O)[C@H](CCCNC(=N)N)NC(=O)[C@H](CCC(=O)O)NC(=O)[C@H](CC(=O)O)NC(=O)[C@H](CCC(=O)O)NC(=O)[C@H](CC(C)C)NC(=O)[C@H](CCCNC(=N)N)NC(=O)[C@H](CCC(=O)O)NC(=O)[C@H](CC(N)=O)NC(=O)[C@H](CCSC)NC(=O)[C@@H](N)CCC(=O)O)C(=O)N[C@@H](CCCCN)C(=O)N[C@@H](C)C(=O)N[C@@H](CCC(=O)O)C(=O)N[C@@H](CC(C)C)C(=O)N[C@H](C(=O)N[C@@H](C)C(=O)N[C@@H](CCCCN)C(=O)O)[C@@H](C)O [Destabilizer] | 1.6 | 3.09±0.05
2 | 1.73E−03 | C[C@H](NC(=O)[C@H](CCCCN)NC(=O)[C@H](Cc1ccccc1)NC(=O)[C@H](CCCCN)NC(=O)[C@H](CCCCN)NC(=O)[C@H](CCCCN)NC(=O)[C@H](CCCCN)NC(=O)[C@H](CCCCN)NC(=O)[C@H](CCCCN)NC(=O)[C@H](CCCCN)NC(=O)[C@@H](N)CCCCN)C(=O)N[C@@H](CCCCN)C(=O)N[C@@H](CCCCN)C(=O)N[C@@H](CCCCN)C(=O)N[C@@H](CCCCN)C(=O)N[C@@H](CCCCN)C(=O)N[C@@H](CCCCN)C(=O)O [Stabilizer] |  | 
